Our source for the IC50 and pIC50 values is ChEMBL document CHEMBL6109067, “Isolation, synthesis and structure-activity relationships of gallotannin derivatives as cathepsin C inhibitor” (Bioorg Med Chem Lett, 2025).

SMILES strings stand for the structures.

One assay concerns the target Procathepsin L (Homo sapiens, UniProt P07711). The experiment in a line: Inhibition of Cathepsin L (unknown origin).
The target in the next assay is Cathepsin S (Homo sapiens, UniProt P25774). Description: Inhibition of Cathepsin S (unknown origin).
Cathepsin S, sequence (P25774 whole entry): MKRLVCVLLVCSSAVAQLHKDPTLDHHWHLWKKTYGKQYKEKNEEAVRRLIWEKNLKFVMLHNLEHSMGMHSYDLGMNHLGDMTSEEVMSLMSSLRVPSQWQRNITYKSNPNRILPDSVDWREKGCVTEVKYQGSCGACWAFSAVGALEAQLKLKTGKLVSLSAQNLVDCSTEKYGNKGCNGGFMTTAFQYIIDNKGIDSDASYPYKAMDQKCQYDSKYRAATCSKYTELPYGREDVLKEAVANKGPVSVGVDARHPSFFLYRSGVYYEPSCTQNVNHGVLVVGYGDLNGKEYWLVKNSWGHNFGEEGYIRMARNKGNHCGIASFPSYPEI
A further assay addresses T1, Cathepsin K (Homo sapiens, UniProt P43235).
T1 sequence (P43235 whole entry): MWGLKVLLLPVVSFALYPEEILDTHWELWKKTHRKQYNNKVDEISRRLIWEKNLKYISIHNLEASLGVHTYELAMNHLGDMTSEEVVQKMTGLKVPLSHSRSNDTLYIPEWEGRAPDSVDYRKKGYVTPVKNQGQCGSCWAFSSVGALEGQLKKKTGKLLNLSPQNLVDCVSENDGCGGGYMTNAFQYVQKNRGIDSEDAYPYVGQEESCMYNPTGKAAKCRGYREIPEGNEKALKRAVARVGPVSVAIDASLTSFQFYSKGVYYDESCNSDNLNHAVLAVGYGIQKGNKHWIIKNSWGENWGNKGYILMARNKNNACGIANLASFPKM
The experiment in a line: Inhibition of Cathepsin K (unknown origin).

In another assay the target is Dipeptidyl peptidase 1 (Homo sapiens, UniProt P53634). The experiment in a line: Inhibition of Cathepsin C (unknown origin).
Dipeptidyl peptidase 1, sequence (P53634 25-134 limits assumed): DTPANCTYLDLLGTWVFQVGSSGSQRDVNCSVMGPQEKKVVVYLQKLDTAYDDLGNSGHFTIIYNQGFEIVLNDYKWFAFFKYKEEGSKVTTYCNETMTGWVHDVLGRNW
Dipeptidyl peptidase 1, sequence (P53634 231-394 limits assumed): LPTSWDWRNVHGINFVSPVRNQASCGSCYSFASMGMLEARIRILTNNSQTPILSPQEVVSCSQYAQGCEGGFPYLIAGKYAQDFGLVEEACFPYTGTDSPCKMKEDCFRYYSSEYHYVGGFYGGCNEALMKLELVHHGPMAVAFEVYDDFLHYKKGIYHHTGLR
Dipeptidyl peptidase 1, sequence (P53634 395-463 limits assumed): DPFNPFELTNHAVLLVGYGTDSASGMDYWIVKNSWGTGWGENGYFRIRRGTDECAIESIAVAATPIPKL

Procathepsin L, sequence (P07711 whole entry): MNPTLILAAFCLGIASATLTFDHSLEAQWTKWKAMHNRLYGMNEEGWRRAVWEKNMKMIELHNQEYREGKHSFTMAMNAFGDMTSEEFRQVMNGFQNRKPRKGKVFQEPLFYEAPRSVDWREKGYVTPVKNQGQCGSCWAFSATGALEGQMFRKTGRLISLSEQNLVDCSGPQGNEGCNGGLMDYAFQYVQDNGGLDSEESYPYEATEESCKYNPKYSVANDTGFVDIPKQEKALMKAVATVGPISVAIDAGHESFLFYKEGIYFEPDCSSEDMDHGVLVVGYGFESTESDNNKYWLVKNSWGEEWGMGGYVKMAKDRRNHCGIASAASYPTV

Broadly, the IC50 is the midpoint of a concentration-inhibition curve. Read a high IC50 as a need for much substance. With `O=C(OC[C@H]1O[C@@H](OC(=O)c2cc(O)c(O)c(O)c2)[C@H](OC(=O)c2cc(O)c(O)c(O)c2)[C@@H](OC(=O)c2cc(O)c(O)c(O)c2)[C@@H]1F)c1cc(O)c(O)c(O)c1`, the IC50 against Procathepsin L was 7.23 µM; against Cathepsin S, greater than 50 µM; against Cathepsin K, greater than 50 µM.
In general, pIC50 refers to the IC50 on a negative log10 scale, so that one unit is a factor of ten. For the compound `COc1cc(C(=O)O[C@@H]2O[C@H](CO)[C@@H](O)[C@H](OC(=O)c3cc(OC)c(OC)c(OC)c3)[C@H]2OC(=O)c2cc(OC)c(OC)c(OC)c2)cc(OC)c1OC`, on Dipeptidyl peptidase 1, the IC50 was greater than 10 µM and the negative logarithm of the IC50 (pIC50) is listed as less than 5.
`O=C(OC[C@H]1O[C@H](OC(=O)c2cc(O)c(O)c(O)c2)[C@H](OC(=O)c2cc(O)c(O)c(O)c2)[C@@H](OC(=O)c2cc(O)c(O)c(O)c2)[C@@H]1OC(=O)c1cc(O)c(O)c(O)c1)c1cc(O)c(O)c(O)c1`: on Dipeptidyl peptidase 1, the IC50 was 1.99 µM.
Same read-out and setting: under `O=C(OC[C@H]1O[C@H](OC(=O)c2cc(O)c(O)c(O)c2)[C@H](OC(=O)c2cc(O)c(O)c(O)c2)[C@@H](OC(=O)c2cc(O)c(O)c(O)c2)[C@H]1OC(=O)c1cc(O)c(O)c(O)c1)c1cc(O)c(O)c(O)c1` stands 2.52 µM; under `O=C(OC[C@H]1O[C@@H](OC(=O)c2cc(O)c(O)c(O)c2)[C@H](OC(=O)c2cc(O)c(O)c(O)c2)[C@@H](OC(=O)c2cc(O)c(O)c(O)c2)[C@H]1OC(=O)c1cc(O)c(O)c(O)c1)c1cc(O)c(O)c(O)c1`, 0.735 µM.
`O=C(N[C@H]1[C@@H](OC(=O)c2cc(O)c(O)c(O)c2)O[C@H](COC(=O)c2cc(O)c(O)c(O)c2)[C@@H](O)[C@@H]1OC(=O)c1cc(O)c(O)c(O)c1)c1cc(O)c(O)c(O)c1`: on Dipeptidyl peptidase 1, the IC50 is greater than 10 µM and the pIC50 was less than 5.
Turning to `CC(C)C[C@H](NC(=O)[C@H]1O[C@@H]1C(=O)O)C(=O)NCCCCN=C(N)N` [E-64], the IC50 was determined as 0.00749 µM against Procathepsin L, 0.00358 µM on Cathepsin S, 4.45 µM on Dipeptidyl peptidase 1 and 0.00117 µM at Cathepsin K.
`O=C(OC[C@H]1O[C@@H](OC(=O)c2cc(O)c(O)c(O)c2)[C@H](OC(=O)c2cc(O)c(O)c(O)c2)[C@@H](OC(=O)c2cc(O)c(O)c(O)c2)[C@@H]1O)c1cc(O)c(O)c(O)c1`: the IC50 against Procathepsin L, on Cathepsin S and against Cathepsin K was greater than 50 µM each time.
Turning to `O=C(OC[C@H]1O[C@@H](OC(=O)c2cc(O)c(O)c(O)c2)[C@H](OC(=O)c2cc(O)c(O)c(O)c2)[C@@H](OC(=O)c2cc(O)c(O)c(O)c2)[C@@H]1OC(=O)c1cc(O)c(O)c(O)c1)c1cc(O)c(O)c(O)c1` [PENTAGALLOYL GLUCOSE], at Dipeptidyl peptidase 1, the IC50 was determined as 0.695 µM.
